Measurements from patent publication US10294217B2, “Fluoroindole derivatives as muscarinic M1 receptor positive allosteric modulators” (Suven Life Sciences Limited, priority 2015, dated 2019).

Assays:
[1] = Protein binding assay (HT dialysis), dog matrices; assay type: in vitro ADME; conditions: Mean ± SEM
Procedure: (§1) Unbound fractions of new chemical entities in plasma, brain homogenate and liver microsomes were determined using high-throughput dialysis (HT dialysis). Briefly, dialysis membranes were soaked in deionized water for 20 minutes and then in deionized water with 30% ethanol for 15 minutes and finally in phosphate buffer until use. Membranes were rinsed in phosphate buffer before assembling. The membranes were layered between teflon bars of dialysis assembly. Stock solutions of test compounds were prepared at 10 mM in DMSO, diluted to 1 mM in acetonitrile and further diluted to 100 μM in mixture of water and acetonitrile (1:1 v/v). Human plasma (pool of 3) was prepared from human blood (3 donors) by centrifuging at 4000 rpm for 10 min at 4° C. Rat and dog blood were obtained on the day of the study and centrifuged to obtain plasma. Rat brains were isolated, cleaned and homogenized with 2 volumes of buffer (3 fold dilution). Liver microsomes were prepared at 0.5 mg/mL in phosphate buffer (100 mM, pH 7.4). The dialysate chambers were loaded with 150 μL of 100 mM phosphate buffer (pH 7.4) in triplicates. The matrix chambers were loaded with 150 μL of the plasma or brain homogenate or microsomal suspension spiked with test compounds at a final concentration of 1 μM. 50 μL of the sample was removed from both the chambers at 0 h. The plate was sealed and incubated at 37° C. for 6 h at 100 rpm. After 6 h, 50 μL of the sample was removed from both the chambers. Equal volumes of buffer or human plasma/microsomal suspension were added to the plasma/microsomal and buffer samples respectively to create identical sample matrices for analysis. The samples were precipitated with 150 μL of acetonitrile containing fluoxetine as an internal standard. All the samples were centrifuged at 10000 rpm for 10 minutes at 4° C.

[2] = Protein binding assay (HT dialysis), human matrices; assay type: in vitro ADME; conditions: Mean ± SEM
Procedure: as §1

[3] = Rodent pharmacokinetic study; assay type: in vivo, Male Wistar rats; conditions: male, Wistar; for AUC(0-t) / half-life / Cmax: rat plasma; for clearance / bioavailability: plasma, rat; for bioavailability: oral 3 mg/kg vs i.v. 1 mg/kg, read-out: % F (Bioavailability)
Procedure: Rodent Pharmacokinetic Study
Male Wistar rats (260±50 grams) were used as experimental animals. Animals were housed individually in polypropylene cage. Two days prior to study, male Wistar rats were anesthetized with isoflurane for surgical placement of jugular vein catheter. Rats were randomly divided for oral (3 mg/kg) and intravenous (i.v.) (1 mg/kg) dosing (n=3/group) and fasted overnight before oral dosing (p.o.). However, rats allocated to intravenous dosing food and water was provided ad libitum.
At pre-determined point, blood was collected through jugular vein and replenished with an equivalent volume of normal saline. Collected blood was transferred into a labeled eppendorf tube containing 10 μL of heparin as an anticoagulant. Typically blood samples were collected at following time points: 0.08, 0.25, 0.5, 1, 2, 4, 6, 8, and 24 hours post dose. Blood was centrifuged at 4000 rpm for 10 minutes. Plasma was separated and stored frozen at −80° C. until analysis. The concentrations of the test compounds were quantified in plasma by qualified LC-MS/MS method using suitable extraction technique. The test compounds were quantified in the calibration range around 1-1000 ng/mL in plasma. Study samples were analyzed using calibration samples in the batch and quality control samples spread across the batch.
Pharmacokinetic parameters Cmax, AUCt, T1/2, Clearance, and Bioavailability (% F) were calculated by non-compartmental model using standard non-compartmental model by using Phoenix WinNonlin 6.0.2 or 6.0.3 version Software package and the results are tabulated in table 3.

[4] = Rodent brain penetration study; assay type: in vivo, Male Wistar rats; conditions: male, Wistar, rat, oral; 3 mg/kg, p.o.; brain-plasma ratio; read-out: Single dose Rat Brain Penetration (Cb/Cp)
Procedure: WO2015044072A1 patent application discloses indole derivatives as M1 PAM compounds. […] This makes these compounds less ideal for the treatment of CNS disorders.
Rodent Brain Penetration Study
Male Wistar rats (260±40 grams) were used as experimental animals. Three animals were housed in each cage. Animals were given water and food ad libitum throughout the experiment and maintained on a 12 hours light/dark cycle.
Brain penetration was determined in discrete manner in rats. One day prior to dosing day, male Wistar rats were acclimatized and randomly grouped according to their weight. At each time point (0.5, 1 and 2 hours) n=3 animals were used.
The test compounds were suitably preformulated and administered orally at (free base equivalent) 3 mg/kg. Blood samples were removed via cardiac puncture by using isoflurane anesthesia. The animals were sacrificed to collect brain tissue. Plasma was separated and brain samples were homogenized and stored frozen at ˜20° C. until analysis. The concentrations of the test compounds in plasma and brain were determined using LC-MS/MS method.
The test compounds were quantified in plasma and brain homogenate by qualified LC-MS/MS method using suitable extraction technique. The test compounds were quantified in the calibration range of 1-500 ng/mL in plasma and brain homogenate. Study samples were analyzed using calibration samples in the batch and quality control samples spread across the batch.

[5] = Protein binding assay (HT dialysis), rat matrices; assay type: in vitro ADME; conditions: Mean ± SEM
Procedure: as §1

[6] = pH 7.4, Dog liver microsomes 0.5 mg/mL, n = 3, read-out: Fu Microsomes
[7] = pH 7.4, Dog plasma, 37° C., n = 3, read-out: Fu Plasma
[8] = pH 7.4, Human liver microsomes 0.5 mg/mL, n = 3, read-out: Fu Microsomes
[9] = pH 7.4, Human plasma, 37° C., n = 3, read-out: Fu Plasma
[10] = pH 7.4, Rat brain homogenate, 37° C., n = 3, read-out: Fu Brain
[11] = pH 7.4, Rat liver microsomes 0.5 mg/mL, n = 3, read-out: Fu Microsomes
[12] = pH 7.4, Rat plasma, 37° C., n = 3, read-out: Fu Plasma

SMILES	fraction unbound at 6 h, 1 μM [1, 6]	fraction unbound at 6 h, 1 μM [1, 7]	fraction unbound at 6 h, 1 μM [2, 8]	fraction unbound at 6 h, 1 μM [2, 9]	AUC(0-t) ([3]; iv, 1 mg/kg) [ng·h/mL]	half-life ([3]; iv, 1 mg/kg) [h]	clearance ([3]; iv, 1 mg/kg) [mL/min/kg]	bioavailability [3] [%]	AUC(0-t) ([3]; oral, 3 mg/kg) [ng·h/mL]	Cmax ([3]; oral, 3 mg/kg) [ng/mL]	half-life ([3]; oral, 3 mg/kg) [h]	Kp [4]	fraction unbound at 6 h, 1 μM [5, 10]	fraction unbound at 6 h, 1 μM [5, 11]	fraction unbound at 6 h, 1 μM [5, 12]
Cl.O=C(N[C@H]1CCNC[C@H]1F)c1cn(Cc2ccnc(F)c2)c2c(F)ccc(F)c12 (single isomer, unassigned; isomer-i) [Example 22, Cis-N-(3-Fluoropiperidin-4-yl)-1-(2-fluoropyridin-4-ylmethyl)-4,7-difluoro-1H-indole-3-carboxamide hydrochloride (Isomer-I)]	0.866 ± 0.034	0.31 ± 0.01	0.788 ± 0.031	0.309 ± 0.008	908 ± 198	7.6 ± 1.7	17.1 ± 3.3	60 ± 5	1650 ± 147	207 ± 76	4.8 ± 2.8	0.46 ± 0.11	0.067 ± 0.002	0.902 ± 0.006	0.315 ± 0.03
Cn1cc(Cn2cc(C(=O)N[C@H]3CCCC[C@@H]3O)c3c(F)cccc32)cn1 [Example 1, N-[(1S,2S)-2-Hydroxycyclohexyl]-1-(1-methyl-1H-pyrazol-4-ylmethyl)-4-fluoro-1H-indole-3-carboxamide]	0.982 ± 0.01	0.217 ± 0.21		0.197 ± 0.01	2250 ± 190	3 ± 0.3	7.3 ± 0.4	76 ± 7	5160 ± 464	1190 ± 81	2.9 ± 0.2	0.3 ± 0.05	0.166 ± 0.01	0.836 ± 0.04	0.267 ± 0.03
O=C(N[C@H]1CCCC[C@@H]1O)c1cn(Cc2ccnc(Cl)c2)c2cccc(F)c12 [Example 2, N-[(1S,2S)-2-Hydroxycyclohexyl]-1-(2-chloropyridin-4-ylmethyl)-4-fluoro-1H-indole-3-carboxamide]	0.576 ± 0.079	0.087 ± 0.008	0.459 ± 0.046	0.04 ± 0.002	1150 ± 245	1.9 ± 0.4	16.1 ± 2.8	63 ± 17	2160 ± 599	632 ± 167	1.9 ± 0.2	0.95 ± 0.17	0.015 ± 0.001	0.679 ± 0.081	0.068 ± 0.002
Cn1cc(Cn2cc(C(=O)N[C@H]3CCCC[C@@H]3O)c3c(F)ccc(F)c32)cn1 [Example 5, N-[(1S,2S)-2-Hydroxycyclohexyl]-1-(1-methyl-1H-pyrazol-4-ylmethyl)-4,7-difluoro-1H-indole-3-carboxamide]	0.746 ± 0.004	0.163 ± 0.02	0.899 ± 0.03	0.077 ± 0.01	2920 ± 1430	4 ± 1.7	7.1 ± 4.3	90 ± 33	7870 ± 2860	2680 ± 664	3.3 ± 0.3	0.5 ± 0.04	0.128 ± 0.01	0.779 ± 0.01	0.21 ± 0.01
O=C(N[C@H]1CCCC[C@@H]1O)c1cn(Cc2ccnc(F)c2)c2cccc(F)c12 [Example 7, N-[(1S,2S)-2-Hydroxycyclohexyl]-1-(2-fluoropyridin-4-ylmethyl)-4-fluoro-1H-indole-3-carboxamide]	0.6 ± 0.03	0.2 ± 0.01	0.7 ± 0.03	0.1 ± 0.004	1120 ± 119	2 ± 0.4	14.2 ± 2	67 ± 14	2260 ± 471	783 ± 254	1.4 ± 0.2	0.61 ± 0.01	0.06 ± 0.004	0.8 ± 0.04	0.2 ± 0.02
O=C(N[C@H]1CCCC[C@@H]1O)c1cn(Cc2ccnc(F)c2)c2c(F)ccc(F)c12 [Example 8, N-[(1S,2S)-2-Hydroxycyclohexyl]-1-(2-fluoropyridin-4-ylmethyl)-4,7-difluoro-1H-indole-3-carboxamide]	0.679 ± 0.066	0.064 ± 0.01	0.626 ± 0.037	0.079 ± 0.006	1830 ± 562	1.8 ± 0.3	9 ± 3	45 ± 15	2500 ± 842	578 ± 170	2.3 ± 1.8	1.1 ± 0.1	0.0348 ± 0.0001	0.606 ± 0.008	0.089 ± 0.01
